One experiment concerns the target T1, IRAK4 (Homo sapiens, UniProt Q9NWZ3).
T1 sequence (Q9NWZ3 1-460): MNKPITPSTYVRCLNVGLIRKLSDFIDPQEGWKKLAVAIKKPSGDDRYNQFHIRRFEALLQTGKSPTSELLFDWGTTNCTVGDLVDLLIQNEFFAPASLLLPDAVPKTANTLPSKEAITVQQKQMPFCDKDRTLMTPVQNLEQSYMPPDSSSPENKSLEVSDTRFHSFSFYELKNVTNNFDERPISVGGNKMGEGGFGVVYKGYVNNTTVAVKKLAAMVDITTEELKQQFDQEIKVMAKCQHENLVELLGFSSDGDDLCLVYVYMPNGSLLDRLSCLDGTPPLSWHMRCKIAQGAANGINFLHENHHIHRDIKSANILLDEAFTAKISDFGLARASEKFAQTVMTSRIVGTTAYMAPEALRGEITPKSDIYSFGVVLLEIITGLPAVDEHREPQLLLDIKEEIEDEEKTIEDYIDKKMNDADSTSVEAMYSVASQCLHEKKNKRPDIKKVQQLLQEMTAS
Nature of the experiment: IRAK-4 activity inhibition assay (Caliper). Particulars: 37 μM ATP, 3.5 nM IRAK4. It counts as biochemical.

The test system of a further experiment is ABC DLBCL Cells. Nature of the experiment: sensitization of ABC DLBCL cells to IRAK inhibitors by BTK knockdown. Particulars: BTK knockdown (FIG. 9). It counts as cell-based. The text has this: FIG. 8 depicts the sensitization of ABC DLBCL Cells to IRAK Inhibitors by BTK knockdown.
Another experiment has as its system THP-1 cells. As to the kind of experiment: LPS induced cytokine (TNFα and IL8) production assay in THP-1 cells. It counts as cell-based. Particulars: Homo sapiens, 300 ng/mL LPS. Summed up: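 THP-1 cells (100,000/well) pre-incubated 1 hour with compound in 0.3% DMSO, then stimulated with 300 ng/mL LPS. TNFα and IL8 in supernatant measured by HTRF at 5 hours; IL8 and viability also at 16 hours.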

The term IC50 denotes the concentration that gives 50% inhibition.

Like-named read-outs stand apart in the source and are kept apart here. Some results are limits rather than exact numbers.

For `NC(=O)C[C@H]1CCc2sc3ncnc(O[C@H]4CC[C@H](N5CCOCC5)CC4)c3c21` [Compound I-67, 2-((R)-4-(((1r,4R)-4-morpholinocyclohexyl)oxy)-6,7-dihydro-5H-cyclopenta[4,5]thieno[2,3-d]pyrimidin-5-yl)acetamide], the IC50 at IRAK4 was less than 5000 nM; in the experiment with THP-1 cells (read-out: IL8 production IC50), no more than 500 nM; in the experiment with THP-1 cells (read-out: TNFα production IC50), 500 to 1000 nM. The “sensitization of ABC DLBCL Cells to compound by BTK knockdown” value in the experiment with ABC DLBCL Cells is reported as “sensitization”.

The values are drawn from US20160193216A1 (Nimbus Iris, Inc., priority 2012, published 2016).
